Assay results reported in ChEMBL document CHEMBL3227933, “Synthesis and preliminary biological studies of 4- and 5-[2-hydroxy-3-(isopropylamino)propoxy]benzimidazoles: selective beta2 adrenergic blocking agents” (J Med Chem, 1979).

Key:
Conditions in all cases: read-out: pA2 (converted)
[1] = target: T1, Beta-1 adrenergic receptor (Cavia porcellus, UniProt B0FL73); test: Competitive antagonist activity at beta-1 adrenergic receptor in guinea pig assessed as inhibition of isoproterenol-induced atrial beat rate; design: species or system Cardiac atrium
T1 sequence (B0FL73 whole entry): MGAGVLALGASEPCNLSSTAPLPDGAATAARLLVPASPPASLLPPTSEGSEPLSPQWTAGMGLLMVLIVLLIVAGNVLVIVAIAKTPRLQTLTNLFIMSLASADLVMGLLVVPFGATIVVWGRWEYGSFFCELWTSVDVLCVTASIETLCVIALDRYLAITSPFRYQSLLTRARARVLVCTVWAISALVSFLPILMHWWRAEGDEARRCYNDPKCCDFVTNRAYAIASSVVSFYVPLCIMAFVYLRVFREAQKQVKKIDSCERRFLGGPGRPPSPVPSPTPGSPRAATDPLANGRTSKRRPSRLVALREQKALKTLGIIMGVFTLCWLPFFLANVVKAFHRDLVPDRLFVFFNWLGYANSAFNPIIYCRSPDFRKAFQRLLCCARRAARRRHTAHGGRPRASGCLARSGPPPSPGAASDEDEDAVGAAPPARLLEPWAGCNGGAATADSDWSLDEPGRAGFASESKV

[2] = target: T1, Beta-1 adrenergic receptor; test: Competitive antagonist activity at beta-1 adrenergic receptor in guinea pig assessed as inhibition of isoproterenol-induced atrial contractile force; design: species or system Cardiac atrium
[3] = target: Beta-2 adrenergic receptor (Cavia porcellus, UniProt Q8K4Z4); test: Competitive antagonist activity at beta-2 adrenergic receptor in guinea pig assessed as inhibition of isoproterenol-induced tracheal relaxation
Chain of Beta-2 adrenergic receptor (Q8K4Z4 whole entry): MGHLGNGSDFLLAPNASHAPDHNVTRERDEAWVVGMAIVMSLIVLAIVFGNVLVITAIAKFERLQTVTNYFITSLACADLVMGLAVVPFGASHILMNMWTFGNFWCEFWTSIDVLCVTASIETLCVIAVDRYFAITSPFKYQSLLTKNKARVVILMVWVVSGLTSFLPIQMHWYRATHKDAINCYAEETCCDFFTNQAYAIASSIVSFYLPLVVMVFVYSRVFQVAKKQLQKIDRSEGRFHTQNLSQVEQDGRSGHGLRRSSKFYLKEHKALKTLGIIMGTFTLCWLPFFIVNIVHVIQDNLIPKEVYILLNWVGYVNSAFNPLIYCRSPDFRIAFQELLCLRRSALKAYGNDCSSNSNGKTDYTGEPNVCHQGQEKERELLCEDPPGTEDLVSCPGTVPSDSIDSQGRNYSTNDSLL

Compound | Kb [1] [nM] | Kb [2] [nM] | Kb [3] [nM]
CC(C)NCC(O)COc1ccc2[nH]cnc2c1 (stereo unspecified) | 1000 | 851 | 380
CC(C)NCC(O)COc1cccc2[nH]cnc12 (stereo unspecified) | 39.8 | 30.9 | 2.29
